In brackets after ≈: the same amount, converted by molar mass. Where two headings read alike, the source gives them in different places.
Assays:
[1] = test system: Measles virus (strain Edmonston); assay: microbe, parasite or virus in culture; type: cell-based
Huh7 cells = assay: cell viability of uninfected Huh7 cells; settings: Example 12 (Dengue assay)
[2] = test system: Dengue virus (strain DENV2New Guinea); assay: inhibition of virus-induced CPE, Dengue virus in Huh7 cells; type: cell-based; settings: Huh-7, 4 h pre-incubation
Protocol: The Dengue virus strain DENV2New Guinea was obtained from ATCC (VR-1584) and was grown in Rhesus monkey kidney cells for the production of stock virus pools.
(§1) Cell viability determination as well as EC50 and TC50 calculations were performed as described in Examples 6 and 8.

HeLa cells = assay: cell viability of uninfected HeLa cells; settings: Example 11
[3] = test system: influenza virus (strain A/PR/8/34); assay: inhibition of virus-induced CPE, influenza virus in MDCK cells; type: cell-based; settings: unidentified influenza virus, PR/8, MDCK, read-out: maximum inhibition of the influenza mediated CPE
[4] = test system: TNF-α, IL-6, IL-1β, GM-CSF, CXCL1, CXCL2, CCL2, MMP9 in lung homogenate; assay: LPS induced lung neutrophilia model, marker concentrations in lung homogenate (Example 2)
[5] = test system: human rhinovirus strain HRV16 strain 11757; assay: inhibition of virus-induced CPE, human rhinovirus in H1-HeLa cells; type: cell-based; settings: Human rhinovirus sp., 4 hour pretreatment, MOI 0.0005, Lefamulin as acetate
Protocol: as §1

[6] = cell viability of uninfected Huh7 cells; settings: human
[7] = test system: influenza A/Puerto Rico/8/34 (H1N1); type: in vivo, BALB/c mice
HEp2 cells = assay: cell viability of uninfected HEp2 cells (XTT); settings: Example 8
[8] = test system: mice challenged with lipopolysaccharide (LPS); assay: LPS induced lung neutrophilia model, BALF cell counts 4 h post LPS (Example 1)
[9] = test system: Zika virus (strain ZIKVPRVABC59); assay: inhibition of virus-induced CPE, Zika virus in Huh7 cells; type: cell-based; settings: Huh-7, 4 hour pretreatment, MOI 0.001, Lefamulin as acetate
Protocol: The Zika virus strain PRVABC59 obtained from ATCC (catalog VR-1843) […] was grown in Rhesus monkey kidney cells for the production of stock virus pools.
as §1

in vitro [10] = settings: human
[11] = test system: human respiratory syncytial virus (strain RSVA2); assay: inhibition of virus-induced CPE, RSVA2 in HEp2 cells (XTT); settings: human respiratory syncytial virus
MRC-5 cells = settings: for cytotoxic effect on the viability of the cell control: Example 6
[12] = test system: mice challenged with lipopolysaccharide (LPS); assay: LPS induced lung neutrophilia model, BALF cell counts (Example 2); settings: 4 h post LPS
in vitro [13] = settings: dog
[14] = cell viability of uninfected HeLa cells; settings: human
[15] = test system: human respiratory syncytial virus (strain RSVA2); settings: Example 8
[16] = test system: alpha coronavirus 229E (HCoV-229E); assay: inhibition of virus-induced CPE, CoV229E in MRC-5 cells (XTT); type: cell-based; settings: for EC50: Human coronavirus 229E, MOI 0.001, read-out: EC50
Protocol: The antiviral compound Remdesivir served as positive control.
Lefamulin (as acetate) was evaluated using different treatment conditions of 4 h, 1 h or 0 h incubation prior to virus addition and addition 1 h after infection For this particular set of experiments, coronavirus was diluted 1:200 in assay medium and added at 100 μL/well to achieve approximately 90% cell killing in the untreated virus control wells (MOI of 0.001).

[17] = 10, 30, or 100 mg/kg SC pre-treatment
[18] = 10, 30, or 100 mg/kg SC pre-treatment, 4 h post LPS
[19] = high dose: 105 mg/kg/day SC in three injections until day 3, then 70 mg/kg twice daily
[20] = high dose, Day 6, vs vehicle treated control
[21] = Lefamulin 35, 70 and 140 mg/kg SC half an hour prior to IN LPS, vs LPS challenge (p<0.05)

For `NC(=O)c1ncn([C@@H]2O[C@H](CO)[C@@H](O)[C@H]2O)n1` [Ribavirin, reference compound], the EC50 ([1]; HeLa cells, 4 h pre-incubation, MOI 0.008) was 1.88 µg/mL, the TC50 (Huh7 cells) was 48.5 µg/mL (≈ 199 µM) and the EC50 ([2]; MOI 0.001) was 4.73 µg/mL. It also gave a TC50 (HeLa cells) of 21.6 µg/mL (≈ 88.4 µM).
For `C=C[C@]1(C)C[C@@H](OC(=O)CS[C@@H]2CC[C@@H](N)C[C@H]2O)[C@]2(C)C(C)CC[C@]3(CCC(=O)[C@H]32)[C@@H](C)[C@@H]1O` (stereo partly drawn) [Lefamulin, 14-O-{[(1R, 2R, 4R)-4-amino-2-hydroxy-cyclohexylsulfanyl]-acetyl}-mutilin], the inhibition at 5 µM [3] was 18.4%, the EC50 ([1]; Measles morbillivirus, HeLa) was 890 nM and the “MMP9 concentrations in lung homogenate” value ([4]; 10 mg/kg SC) was “did not alter”. The “reduction of MMP9 levels in lung homogenate” value ([4]; 30 mg/kg SC) was 26%, the “reduction of MMP9 levels in lung homogenate” value ([4]; 100 mg/kg SC) was 53% and the “reduction of IL-1β level in lung homogenate” value ([4]; 100 mg/kg SC pre-treatment) was 24%. The “CXCL1 level in lung homogenate” value [4, 17] was “significantly reduced”, the “CXCL2 level in lung homogenate” value [4, 17] was “significantly reduced” and the “reduction of IL-6 level in lung homogenate” value [4, 18] was no less than 50%. The “reduction of TNF-α level in lung homogenate” value [4, 18] was no less than 50%, the “GM-CSF in lung homogenate” value ([4]; all doses tested (10, 30, 100 mg/kg SC)) was “almost completely inhibited” and the “LPS-induced CCL2 increase in the lung homogenate” value ([4]; all investigated doses (10, 30, 100 mg/kg SC), Valnemulin particularly at 10 and 30 mg/kg) was “completely inhibited”. For the same compound, the EC50 [5] was 9.34 µM, the CC50 at 6 days ([6]; TC50, Example 12 (Dengue assay)) was 23.3 µM and the CC50 at 6 days ([6]; TC50, Example 13 (Zika assay)) was 23.4 µM. The “B cells (BALF)” value ([7]; Day 6) was “reduction was only significant at the highest dose”, the “infiltration of CD4 cells in the lung” value ([7]; Day 6, both doses tested) was “decreased” and the “infiltration of CD8 cells in the lung” value ([7]; Day 6, both doses tested) was “decreased”. For the same compound, the “infiltration of NK cells in the lung” value ([7]; Day 6, both doses tested) was “decreased”, the “neutrophils infiltration (BALF)” value ([7]; Day 6, both doses tested) was “significantly decreased” and the “total immune cell infiltration in the lung (BALF flow cytometry)” value ([7]; Day 6, both doses tested, p<0.05) was “significantly decreased”. The “inflammatory monocyte infiltration in the lung” value ([7]; Day 6, higher dose) was “significantly reduced”, the “lung viral titres (TCID50 on MDCK cells)” value ([7]; Lefamulin at both doses, Oseltamivir positive control, Day 3 and Day 6, vs vehicle treated control) was “reduced” and the bodyweight ([7]; at the investigated doses (low and high dose SC)) was “did not have a significant effect”. The “clinical scores compared to vehicle” value [7, 19] was “increase”, the “survival compared to vehicle” value [7, 19] was “decrease” and the “alveolar inflammation (histopathology)” value [7, 20] was “significant reduction”. The “bronchial degeneration (histopathology)” value [7, 20] was “significant reduction”, the overall histopathology score [7, 20] was “significant reduction” and the “macroscopically evaluated lung consolidation” value ([7]; low dose: 35 mg/kg SC twice daily, Day 6) was “significant improvement”. For the same compound, the “survival until day 6” value ([7]; lower dose: 35 mg/kg SC twice daily, Day -1 to Day 6) was 90%, the EC50 ([2]; MOI 0.001, Lefamulin as acetate) was 6.79 µM and the “cytotoxic effect on the viability of the cell control” value (“cytotoxic effect on the viability” for short) (HEp2 cells; 10 μM and 50 μM) was “no cytotoxic effect”. For the same compound, the “cytotoxic effect on the viability” value (HEp2 cells; 100 μM) was “cytotoxic effect”, the “neutrophil cell count in BALF” value [8, 21] was “statistically significant reduction” and the “total cell count in BALF” value [8, 21] was “statistically significant reduction”. For the same compound, the “cell influx (BALF)” value ([8]; highest dose of 140 mg/kg SC) was “Almost complete impairment”, the EC50 [9] was 2780 nM and the CC50 (in vitro [10]) was 24.1 µM. For the same compound, the cytotoxicity (MDCK cells; 50 μM) was “cytotoxicity was observed”, the “concentrations cytotoxic to MDCK cells” value (MDCK cells; Example 15) was “greater than 23 μM” and the EC50 ([11]; HEp-2, Example 8, HEp2 cells, 4 h incubation prior to virus, MOI 0.001, 6 days post-infection, Lefamulin as acetate, Tiamulin as fumarate) was 5.34 µM. The EC50 ([11]; HEp-2, Example 9, MOI 0.0004) was 2.34 µM, the EC50 ([11]; HEp-2, Example 9, MOI 0.0008) was 28.7 µM and the EC50 ([11]; HEp-2, Example 9, MOI 0.001) was 32.3 µM. For the same compound, the EC50 ([11]; HEp-2, Example 9, MOI 0.003) was greater than 63.2 µM, the “cytotoxic effect on the viability” value (MRC-5 cells; 10 μM) was “no cytotoxic effect” and the “cytotoxic effect on the viability” value (MRC-5 cells; 50 μM) was “cytotoxic effect”. For the same compound, the CC50 (MRC-5 cells; human, 6 days) was greater than 50 µM, the “total cell counts in BALF, significance of change” value ([12]; 100 mg/kg SC, p<0.05) was “statistically significant” and the “total cell counts in BALF” value ([12]; 10, 30, or 100 mg/kg SC 30 min before LPS) was “reduced dose-dependently”. For the same compound, the “lymphocyte cell counts in BALF” value ([12]; 10, 30 and 100 mg/kg SC) was “not significantly affected”, the “macrophage cell counts in BALF” value ([12]; 10, 30 and 100 mg/kg SC) was “not significantly affected” and the “neutrophil cells in BALF” value ([12]; 10, 30 and 100 mg/kg SC) was “dose-dependent and significant reduction”. For the same compound, the CC50 (in vitro [13]) was 23.8 µM, the CC50 at 6 days [14] was 72.7 µM and the “reduction of viral CPE” value ([15]; 10 μM) was 92.17%. The “reduction of viral CPE” value ([15]; 50 μM) was 100%, the “reduction of viral CPE” value ([16]; 10 µM) was 91.82% and the “reduction of viral CPE” value ([16]; 1 h, 50 µM) was 86.83%. The EC50 ([16]; MRC5, 1 h, Example 7, 1 h post-infection) was 15.1 µM, the EC50 ([16]; MRC5, Example 6, MRC-5 cells, 4 h incubation prior to virus, 6 days post-infection, Lefamulin as acetate, Tiamulin as fumarate) was 3.87 µM and the EC50 ([16]; MRC5, Example 7, 0 h pretreatment) was 3.08 µM. The EC50 ([16]; MRC5, Example 7, 1 h pretreatment) was 2.16 µM and the EC50 ([16]; MRC5, Example 7, 4 h pretreatment) was 2.18 µM.

Source: patent publication US20230174472A1, “THERAPEUTIC USE OF PLEUROMUTILINS” (priority 2020, published 2023)
